Measurements from patent US6737383B1, “Herbicidal oxadiazolidines” (priority 1999, dated 2004).

What was measured:
surinam grass = test: Test B pre/postemergence surinam grass; assay type: in vivo, Brachiaria decumbens
Summary of the method: (§1)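 Response is a visual 0-to-10 score relative to untreated plants, where 0 means no effect and 10 means complete control, taken twelve to sixteen days after application. Treatments went onto soil at planting and onto foliage of 1- to 4-leaf plants, using a surfactant-containing non-phytotoxic solvent.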

rice = test: Test B flood test rice; assay type: in vivo, Oryza sativa
Summary of the method: (§2)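 Each value is a visual injury score relative to controls, with 10 meaning complete control and 0 no effect. Evaluation took place twelve to sixteen days after the 2-leaf-stage plants were treated and kept in the greenhouse.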

cocklebur = test: Test B pre/postemergence cocklebur; assay type: in vivo, Xanthium strumarium
Summary of the method: as §1

purple nutsedge = test: Test B pre/postemergence purple nutsedge; assay type: in vivo, Cyperus rotundus
Summary of the method: as §1

duck salad = test: Test B flood test duck salad; assay type: in vivo, Heteranthera limosa
Summary of the method: as §2

smallflower flatsedge = test: Test B flood test smallflower flatsedge; assay type: in vivo, Cyperus difformis
Summary of the method: as §2

crabgrass = test: Test B pre/postemergence crabgrass; assay type: in vivo, Digitaria sanguinalis
Summary of the method: as §1

sugar beet = test: Test B pre/postemergence sugar beet; assay type: in vivo, Beta vulgaris
Summary of the method: as §1

wild oat = test: Test B pre/postemergence wild oat; assay type: in vivo, Avena fatua
Summary of the method: as §1

bedstraw = test: Test B pre/postemergence bedstraw; assay type: in vivo, Galium aparine
Summary of the method: as §1

blackgrass = test: Test B pre/postemergence blackgrass; assay type: in vivo, Alopecurus myosuroides
Summary of the method: as §1

giant foxtail = test: Test B pre/postemergence giant foxtail; assay type: in vivo, Setaria faberii
Summary of the method: as §1

pigweed = test: Test B pre/postemergence pigweed; assay type: in vivo, Amaranthus retroflexus
Summary of the method: as §1

corn = test: Test B pre/postemergence corn; assay type: in vivo, Zea mays
Summary of the method: as §1

soybean = test: Test B pre/postemergence soybean; assay type: in vivo, Glycine max
Summary of the method: as §1

morningglory = test: Test B pre/postemergence morningglory; assay type: in vivo, Ipomoea hederacea
Summary of the method: as §1

[1] = Preemergence, Rate 62 g/ha, scale of 0 to 10 where 0 is no effect and 10 is complete control
[2] = Preemergence, Rate 500 g/ha, scale of 0 to 10 where 0 is no effect and 10 is complete control
[3] = Rate 62 g/ha, Postemergence, scale of 0 to 10 where 0 is no effect and 10 is complete control
[4] = Rate 125 g/ha, Preemergence, scale of 0 to 10 where 0 is no effect and 10 is complete control
[5] = Rate 62 g/ha, headed Pre-emergence (flood test species), scale 0 to 10 (0 no effect, 10 complete control)
[6] = Rate 125 g/ha, Pre-emergence, flood test species, scale 0 to 10 where 0 is no effect and 10 is complete control
[7] = Rate 250 g/ha, Pre-emergence, flood-test species, scale 0 to 10, 0 is no effect, 10 is complete control
[8] = Rate 500 g/ha, Pre-emergence, flood test species, scale 0 to 10 (0 no effect, 10 complete control)
[9] = Preemergence, Rate 250 g/ha, scale of 0 to 10 where 0 is no effect and 10 is complete control
[10] = Rate 125 g/ha, Postemergence, scale 0 to 10
[11] = Rate 500 g/ha, Postemergence, scale 0 to 10

CC(C)N(C(=O)n1oc(=O)n(CC(=O)C(C)(C)C)c1=O)c1ccc(F)cc1 [Compound 216]
6: Giant foxtail plant response rating (giant foxtail; [4]) | Giant foxtail plant response rating (giant foxtail; [11])
0: B. signalgrass plant response rating (surinam grass; [1]) | B. signalgrass plant response rating (surinam grass; [3]) | Rice plant response rating (rice; [5]) | Rice plant response rating (rice; [6]) | Rice plant response rating (rice; [7]) | Rice plant response rating (rice; [8]) | Cocklebur plant response rating (cocklebur; [1]) | Cocklebur plant response rating (cocklebur; [9]) | Plant response rating, Cocklebur (cocklebur; [2]) | Cocklebur plant response rating (cocklebur; [3]) | Cocklebur plant response rating (cocklebur; [10]) | Cocklebur plant response rating (cocklebur; [4]) | Plant response rating (0 to 10; 0 is no effect, 10 is complete control), Cocklebur (cocklebur; Rate 250 g/ha, Postemergence) | Nutsedge plant response rating (purple nutsedge; [1]) | Nutsedge plant response rating (purple nutsedge; [9]) | Plant response rating, Nutsedge (purple nutsedge; [2]) | Nutsedge plant response rating (purple nutsedge; [3]) | Nutsedge plant response rating (purple nutsedge; [10]) | Nutsedge plant response rating (purple nutsedge; [4]) | Plant response rating (0 to 10; 0 is no effect, 10 is complete control), Nutsedge (purple nutsedge; Rate 250 g/ha, Postemergence) | Nutsedge plant response rating (purple nutsedge; [11]) | Ducksalad plant response rating (duck salad; [5]) | Ducksalad plant response rating (duck salad; [6]) | Ducksalad plant response rating (duck salad; [7]) | Ducksalad plant response rating (duck salad; [8]) | S. Flatsedge plant response rating (smallflower flatsedge; [5]) | S. Flatsedge plant response rating (smallflower flatsedge; [6]) | S. Flatsedge plant response rating (smallflower flatsedge; [7]) | S. Flatsedge plant response rating (smallflower flatsedge; [8]) | Crabgrass plant response rating (crabgrass; [1]) | Crabgrass plant response rating (crabgrass; [3]) | Sugarbeets plant response rating (sugar beet; [1]) | Sugarbeets plant response rating (sugar beet; [9]) | Plant response rating, Sugarbeets (sugar beet; [2]) | Sugarbeets plant response rating (sugar beet; [3]) | Sugarbeets plant response rating (sugar beet; [10]) | Sugarbeets plant response rating (sugar beet; [4]) | Plant response rating (0 to 10; 0 is no effect, 10 is complete control), Sugarbeets (sugar beet; Rate 250 g/ha, Postemergence) | Wild oats plant response rating (wild oat; [1]) | Wild oats plant response rating (wild oat; [9]) | Plant response rating, Wild oats (wild oat; [2]) | Wild oats plant response rating (wild oat; [3]) | Wild oats plant response rating (wild oat; [10]) | Wild oats plant response rating (wild oat; [4]) | Plant response rating (0 to 10; 0 is no effect, 10 is complete control), Wild oats (wild oat; Rate 250 g/ha, Postemergence) | Bedstraw plant response rating (bedstraw; [1]) | Bedstraw plant response rating (bedstraw; [9]) | Plant response rating, Bedstraw (bedstraw; [2]) | Bedstraw plant response rating (bedstraw; [3]) | Bedstraw plant response rating (bedstraw; [10]) | Bedstraw plant response rating (bedstraw; [4]) | Blackgrass plant response rating (blackgrass; [1]) | Blackgrass plant response rating (blackgrass; [3]) | Giant foxtail plant response rating (giant foxtail; [1]) | Giant foxtail plant response rating (giant foxtail; [3]) | Redroot pigweed plant response rating (pigweed; [1]) | Redroot pigweed plant response rating (pigweed; [3]) | Redroot pigweed plant response rating (pigweed; [10]) | Redroot pigweed plant response rating (pigweed; [4]) | Corn plant response rating (corn; [1]) | Corn plant response rating (corn; [9]) | Plant response rating, Corn (corn; [2]) | Corn plant response rating (corn; [3]) | Corn plant response rating (corn; [10]) | Corn plant response rating (corn; [4]) | Soybean plant response rating (soybean; [1]) | Soybean plant response rating (soybean; [9]) | Plant response rating, Soybean (soybean; [2]) | Soybean plant response rating (soybean; [4]) | Morningglory plant response rating (morningglory; [1]) | Morningglory plant response rating (morningglory; [9]) | Plant response rating, Morningglory (morningglory; [2]) | Morningglory plant response rating (morningglory; [4])
5: Plant response rating (0 to 10; 0 is no effect, 10 is complete control), B. signalgrass (surinam grass; Rate 250 g/ha, Postemergence)
7: Crabgrass plant response rating (crabgrass; [11]) | Giant foxtail plant response rating (giant foxtail; [9]) | Plant response rating (0 to 10; 0 is no effect, 10 is complete control), Morningglory (morningglory; Rate 250 g/ha, Postemergence)
1: B. signalgrass plant response rating (surinam grass; [4]) | Soybean plant response rating (soybean; [3]) | Soybean plant response rating (soybean; [10]) | Plant response rating (0 to 10; 0 is no effect, 10 is complete control), Soybean (soybean; Rate 250 g/ha, Postemergence)
10: Morningglory plant response rating (morningglory; [11])
9: Plant response rating, Giant foxtail (giant foxtail; [2])
8: B. signalgrass plant response rating (surinam grass; Rate 500 g/ha, Postemergence, scale 0 to 10, 0 no effect, 10 complete control) | Crabgrass plant response rating (crabgrass; [9]) | Plant response rating, Crabgrass (crabgrass; [2]) | Plant response rating (0 to 10; 0 is no effect, 10 is complete control), Blackgrass (blackgrass; Rate 250 g/ha, Postemergence) | Blackgrass plant response rating (blackgrass; [11]) | Plant response rating, Redroot pigweed (pigweed; [2])
4: B. signalgrass plant response rating (surinam grass; Preemergence, Rate 250 g/ha, scale 0 to 10, 0 is no effect, 10 is complete control) | Plant response rating, B. signalgrass (surinam grass; [2]) | Plant response rating (0 to 10; 0 is no effect, 10 is complete control), Crabgrass (crabgrass; Rate 250 g/ha, Postemergence) | Blackgrass plant response rating (blackgrass; [9]) | Plant response rating, Blackgrass (blackgrass; [2]) | Blackgrass plant response rating (blackgrass; [10]) | Plant response rating (0 to 10; 0 is no effect, 10 is complete control), Giant foxtail (giant foxtail; Rate 250 g/ha, Postemergence) | Morningglory plant response rating (morningglory; [10])
2: B. signalgrass plant response rating (surinam grass; Rate 125 g/ha, Postemergence, scale 0 (no effect) to 10 (complete control)) | Crabgrass plant response rating (crabgrass; [10]) | Sugarbeets plant response rating (sugar beet; [11]) | Plant response rating (0 to 10; 0 is no effect, 10 is complete control), Bedstraw (bedstraw; Rate 250 g/ha, Postemergence) | Blackgrass plant response rating (blackgrass; [4]) | Giant foxtail plant response rating (giant foxtail; [10]) | Redroot pigweed plant response rating (pigweed; [9]) | Plant response rating (0 to 10; 0 is no effect, 10 is complete control), Redroot pigweed (pigweed; Rate 250 g/ha, Postemergence) | Plant response rating (0 to 10; 0 is no effect, 10 is complete control), Corn (corn; Rate 250 g/ha, Postemergence) | Soybean plant response rating (soybean; [11])
3: Cocklebur plant response rating (cocklebur; [11]) | Crabgrass plant response rating (crabgrass; [4]) | Redroot pigweed plant response rating (pigweed; [11]) | Corn plant response rating (corn; [11]) | Morningglory plant response rating (morningglory; [3])
